The assay has as its target T1, recombinant pig FXIIa (Sus scrofa, UniProt O97507).
T1 construct: of FXII into a heavy chain (HC) and a light chain (LC); made in house; host or cells: CHO cells
T1 sequence (O97507 20-616): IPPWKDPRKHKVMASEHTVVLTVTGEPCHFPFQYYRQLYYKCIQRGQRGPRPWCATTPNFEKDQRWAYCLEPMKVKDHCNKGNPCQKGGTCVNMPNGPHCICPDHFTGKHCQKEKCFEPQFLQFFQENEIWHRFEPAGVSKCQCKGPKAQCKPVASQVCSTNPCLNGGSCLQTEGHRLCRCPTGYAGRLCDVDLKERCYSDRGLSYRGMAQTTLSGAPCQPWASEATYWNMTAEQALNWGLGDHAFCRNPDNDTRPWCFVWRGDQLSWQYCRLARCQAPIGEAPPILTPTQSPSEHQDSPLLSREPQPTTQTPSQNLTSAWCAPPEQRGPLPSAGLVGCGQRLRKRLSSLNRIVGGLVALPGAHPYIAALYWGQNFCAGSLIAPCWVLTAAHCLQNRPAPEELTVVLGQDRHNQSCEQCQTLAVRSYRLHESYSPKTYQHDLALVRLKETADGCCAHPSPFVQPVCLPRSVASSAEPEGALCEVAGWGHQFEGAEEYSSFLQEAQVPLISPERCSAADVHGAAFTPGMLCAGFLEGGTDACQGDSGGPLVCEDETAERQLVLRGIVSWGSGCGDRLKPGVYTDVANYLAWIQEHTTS
Put plainly: Inhibition of recombinant FXIIa (rFXIIa). In kind it is biochemical. From the text:
The protein sequences for human, rabbit and pig factor XII were taken from the following database entries: human FXII: UniProtKB - P00748; rabbit FXII: NCBI RefSeq - XP_008253687.1; pig FXII: UniProtKB - O97507. The sequences are shown in the Supplementary Methods. DNA encoding the full-length proteins were ordered from Eurofins Genomics. The codons in these sequences were optimized for mammalian expression using the codon optimization tool from Integrated DNA Technologies (IDT). In addition to the FXII gene, the ordered DNA sequences encode a C-terminal GSGS-linker, a His6-tag and a stop codon, and they are flanked by NheI (GCTAGC) and a HindIII (AAGCTT) restriction sites. The entire DNA sequences are provided in the supporting materials. The DNA sequences were cloned into the pEXPR-IBA42 vector downstream of a BM40 signal sequence for secreted expression in mammalian cells. The ligated vector was transformed into DH5 alpha electrocompetent E. coli cells. Plasmid DNA from single clones was sequenced by Sanger sequencing.
1.5 mg plasmid DNA was transfected into 500 ml CHO cells (Thermo Fisher Scientific) in cell suspension culture using polyethylenimine (PEI). Cells were incubated for seven days at 37 °C, 5% CO2 under shaking conditions. The cells were removed by centrifugation and the secreted protein was purified from the supernatant using a nickel-charged immobilized metal affinity chromatography (IMAC) column (5 ml HisTrap FF Crude, GE Healthcare). The column was equilibrated with buffer containing 15 mM imidazole, 100 mM NaCl, 20 mM Tris-HCl, pH 7.4. The pH of the cell culture supernatant was adjusted to 8.0 using NaOH. The supernatant was run through the column at a flow of 5 ml per min. The column was washed with 20 column volumes of equilibration buffer at a flow of 5 ml per min. The protein was eluted with 500 mM imidazole, 100 mM NaCl, 20 mM Tris-HCl, pH 7.4 at a flow of 5 ml per min. The buffer was subsequently exchanged to 100 mM NaCl, 20 mM Tris-HCl, pH 7.4 by three iterative steps of 10-fold dilution and 10-fold concentration using a 10,000 MWCO centrifugal concentrator. The concentration was determined by measuring absorption at 280 nm (ε = 100,000). For the activation of recombinant FXII, 10 μg protein was diluted to a total volume of 10 μl 100 mM NaCl, 20 mM Tris-HCl, pH 7.4 and further diluted with 10 μl of 2-fold concentrated assay buffer (300 mM NaCl, 20 mM MgCl2, 2 mM CaCl2, 20 mM Tris-HCl, 0.02% (v/v) Triton-X100, pH 7.4). Dextran sulfate 500 kDa (DXS500) was added to a final concentration of 0.2 μg μl^−1 and incubated for 1 hour at 37 °C. 5 μg protein was analyzed by SDS-PAGE under reducing conditions.
Protease inhibition assays
The inhibitory activity of peptides was determined by measuring the residual protease activity with a fluorogenic substrate. The assay was performed in buffer containing 10 mM Tris-Cl, pH […]
1% (v/v) DMSO in a volume of 150 µl. FXIIa activity was measured with the fluorogenic substrate Boc-Gln-Gly-Arg-AMC (Bachem) at a final concentration of 50 µM. Mouse α-FXIIa (Molecular Innovations cat # MFXIIA) and human β-FXIIa (Molecular Innovations cat # HFXIIAB) were used at final concentrations of 0.4 nM. The reaction was pipetted as follows: 50 µl of bicyclic peptide in assay buffer were added to 50 µl of FXIIa in assay buffer and incubated for 10 minutes at 25°C before 50 µl of 150 µM fluorogenic substrate in assay buffer were added to measure the residual protease activity with an Infinite M200Pro fluorescence plate reader (excitation at 368 nm, emission at 467 nm; Tecan) for a period of 30 minutes with a read every minute at 25°C. The Tecan software i-control (version 1.1) was used for data analysis. Stock solutions of 1 mM bicyclic peptide were prepared by either dissolving the unpurified cyclization reaction with water or by dissolving purified and lyophilized peptide in water. The bicyclic peptides were serially diluted two-fold using assay buffer. Sigmoidal curves were fitted to the […]

Like-named read-outs stand apart in the source and are kept apart here. Starred links: 1 amine or outer side, 2 acyl side, 3 side chain; linkers in the order of their positions; H or OH if unused. Positions of bridges follow the written chain, without caps; N, C: chain ends. Non-standard residues stand in square brackets, D forms with d. Residues, ends and D or L forms follow the SMILES beside them. TATA = O=C(CC[*:1])N1CN(C(=O)CC[*:2])CN(C(=O)CC[*:3])C1; Phe(4-F) = N[C@@H](Cc1ccc(F)cc1)C(=O)O; β3hR = N=C(N)NCCC[C@H](N)CC(=O)O

The term Ki denotes the equilibrium dissociation constant of an inhibitor or competing ligand from its target. On to `CC(C)C[C@@H]1NC(=O)[C@H](CCC(N)=O)NC(=O)[C@H](Cc2c[nH]cn2)NC(=O)[C@@H]2CSCCC(=O)N3CN(CN(C3)C(=O)CCSC[C@H](NC(=O)[C@@H](CO)NC(=O)[C@H](N)CCCNC(=N)N)C(=O)N[C@@H](Cc3ccc(F)cc3)C(=O)N[C@@H](CCCNC(=N)N)C(=O)N[C@@H](CC(C)C)C(=O)N3CCC[C@H]3C(=O)N2)C(=O)CCSC[C@@H](C(N)=O)NC(=O)C[C@H](CCCNC(=N)N)NC1=O` [FXII900] (H-[dR][dS]C[Phe(4-F)]RLPCHQL[β3hR]C-NH2; linker 3-8-13 via TATA), for which the Ki worked out at 17.4 ± 1.4 nM. The remaining activity at 0.0005 µM (read-out: Residual activity (%), Recombinant pig FXII, peptide 0.5 nM, individual plates) stood at 99.6%. Moreover, the remaining activity at 0.001 µM (read-out: Residual activity (%), Recombinant pig FXII, peptide 1 nM, individual plates) is 93.5%. The remaining activity at 0.002 µM (read-out: Residual activity (%), Recombinant pig FXII, peptide 2 nM, individual plates) stood at 91.1%. For the same molecule, the remaining activity at 0.004 µM (read-out: Residual activity (%), Recombinant pig FXII, peptide 4 nM, individual plates) stood at 83.3%. Also, the remaining activity at 0.008 µM (read-out: Residual activity (%), Recombinant pig FXII, peptide 8 nM, individual plates) was found to be 71.6%. Under “read-out: Residual activity (%), Recombinant pig FXII, peptide 16 nM, individual plates”, the remaining activity at […] was found to be 55.5%. Also, the remaining activity at […] (read-out: Residual activity (%), Recombinant pig FXII, peptide 32 nM, individual plates) is 38.2%. For the same molecule, the remaining activity at 0.064 µM (read-out: Residual activity (%), Recombinant pig FXII, peptide 64 nM, individual plates) was 23.5%. Under “read-out: Residual activity (%), Recombinant pig FXII, peptide 128 nM, individual plates”, the remaining activity at 0.128 µM is 11.5%. Also, the remaining activity at 0.256 µM (read-out: Residual activity (%), Recombinant pig FXII, peptide 256 nM, individual plates) worked out at 7.16%. Besides, the remaining activity at 0.512 µM (read-out: Residual activity (%), Recombinant pig FXII, peptide 512 nM, individual plates) stood at 5.15%.

Turning to `CC(C)C[C@@H]1NC(=O)[C@H](CCC(N)=O)NC(=O)[C@H](CCCNC(=N)N)NC(=O)[C@@H]2CSCCC(=O)N3CN(CN(C3)C(=O)CCSC[C@H](NC(=O)[C@@H](N)CCCNC(=N)N)C(=O)N[C@@H](Cc3ccccc3)C(=O)N[C@@H](CCCNC(=N)N)C(=O)N[C@@H](CC(C)C)C(=O)N3CCC[C@H]3C(=O)N2)C(=O)CCSC[C@@H](C(=O)N[C@@H](CCCNC(=N)N)C(N)=O)NC(=O)[C@H](CCCNC(=N)N)NC1=O` [FXII618], the remaining activity at 0.00195312 µM (Recombinant pig FXII, peptide 1.95312 nM, individual plates, read-out: Residual activity (%)) worked out at 102%. Under “Recombinant pig FXII, peptide 3.90625 nM, individual plates, read-out: Residual activity (%)”, the remaining activity at 0.00390625 µM turned out to be 103%. Further, the remaining activity at 0.0078125 µM (Recombinant pig FXII, peptide 7.8125 nM, individual plates, read-out: Residual activity (%)) was 95.8%. Besides, under “Recombinant pig FXII, peptide 15.625 nM, individual plates, read-out: Residual activity (%)”, the remaining activity at 0.015625 µM is 92.8%. For the same molecule, the remaining activity at 0.03125 µM (Recombinant pig FXII, peptide 31.25 nM, individual plates, read-out: Residual activity (%)) turned out to be 87.6%. The remaining activity at 0.0625 µM (Recombinant pig FXII, peptide 62.5 nM, individual plates, read-out: Residual activity (%)) was found to be 82.2%. In addition, the remaining activity at 0.125 µM (Recombinant pig FXII, peptide 125 nM, individual plates, read-out: Residual activity (%)) stood at 71%. Besides, where the note is “Recombinant pig FXII, peptide 250 nM, individual plates, read-out: Residual activity (%)”, the remaining activity at […] is 54.9%. The remaining activity at 0.5 µM (Recombinant pig FXII, peptide 500 nM, individual plates, read-out: Residual activity (%)) is 38%. Further, the remaining activity at 1 µM (Recombinant pig FXII, peptide 1000 nM, individual plates, read-out: Residual activity (%)) came out at 21.5%. In addition, the remaining activity at 2 µM (Recombinant pig FXII, peptide 2000 nM, individual plates, read-out: Residual activity (%)) was found to be 14.6%.

For the origin of these results see publication PMC7403315, “Cyclic peptide FXII inhibitor provides safe anticoagulation in a thrombosis model and in artificial lungs” (Nature Communications, 2020).
